Tests used:
Format in all cases: in vivo
green foxtail = experiment: Test Example 3: weedkilling efficacy through soil treatment; E: green foxtail; conditions: soil treatment, treatment dosage 320 g/ha
How it was run: (§1)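 Crop and weed responses were judged three weeks after a uniform surface spray of the water-diluted emulsion at the given g/ha rate. Seeds sat beneath about 1.5 cm of sterilized diluvial soil, and boxes stood in a greenhouse at 25 to 30° C.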

fig-leafed goosefoot = experiment: Test Example 3: weedkilling efficacy through soil treatment; M: fig-leafed goosefoot; conditions: soil treatment, treatment dosage 320 g/ha
How it was run: as §1

birds-eye speedwell = experiment: Test Example 3: weedkilling efficacy through soil treatment; p: birds-eye speedwell; conditions: soil treatment, treatment dosage 320 g/ha
How it was run: as §1

beet = experiment: Test Example 3: soil treatment, effect on crop; f: beet; conditions: soil treatment, treatment dosage 320 g/ha
How it was run: as §1

Italian ryegrass = experiment: Test Example 3: weedkilling efficacy through soil treatment; I: Italian ryegrass; conditions: soil treatment, treatment dosage 320 g/ha
How it was run: as §1

common wind-grass = experiment: Test Example 3: weedkilling efficacy through soil treatment; J: common wind-grass; conditions: soil treatment, treatment dosage 320 g/ha
How it was run: as §1

bulrush [1] = experiment: Test Example 1: weedkilling efficacy, preemergent weed treatment in the submerged state; B: bulrush; conditions: treatment dosage 320 g/ha
How it was run: (§2)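 Pots of alluvial soil flooded 4 cm deep, sown with barnyard grass, bulrush and oval-leafed pondweed and transplanted with 2.5-leaf rice. Emulsified compound applied to the water surface on sowing day at stated g/ha; greenhouse 25–30 °C, effects assessed 3 weeks after treatment.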

wheat = experiment: Test Example 3: soil treatment, effect on crop; e: wheat; conditions: soil treatment, treatment dosage 320 g/ha
How it was run: as §1

directly sown rice = experiment: Test Example 3: soil treatment, effect on crop; b: directly sown rice; conditions: soil treatment, treatment dosage 320 g/ha
How it was run: as §1

black-grass = experiment: Test Example 3: weedkilling efficacy through soil treatment; H: black-grass; conditions: soil treatment, treatment dosage 320 g/ha
How it was run: as §1

wild oat = experiment: Test Example 3: weedkilling efficacy through soil treatment; G: wild oat; conditions: soil treatment, treatment dosage 320 g/ha
How it was run: as §1

soybean = experiment: Test Example 3: soil treatment, effect on crop; d: soybean; conditions: soil treatment, treatment dosage 320 g/ha
How it was run: as §1

corn = experiment: Test Example 3: soil treatment, effect on crop; c: corn; conditions: soil treatment, treatment dosage 320 g/ha
How it was run: as §1

crabgrass = experiment: Test Example 3: weedkilling efficacy through soil treatment; D: crabgrass; conditions: soil treatment, treatment dosage 320 g/ha
How it was run: as §1

transplanted rice = experiment: Test Example 1: preemergent weed treatment in the submerged state, effect on crop; a: transplanted rice; conditions: treatment dosage 320 g/ha
How it was run: as §2

barnyard grass [2] = experiment: Test Example 3: weedkilling efficacy through soil treatment; F: barnyard grass; conditions: soil treatment, treatment dosage 320 g/ha
How it was run: as §1

chickweed = experiment: Test Example 3: weedkilling efficacy through soil treatment; N: chickweed; conditions: soil treatment, treatment dosage 320 g/ha
How it was run: as §1

Indian mallow = experiment: Test Example 3: weedkilling efficacy through soil treatment; K: Indian mallow; conditions: soil treatment, treatment dosage 320 g/ha
How it was run: as §1

oval-leafed pondweed [3] = experiment: Test Example 2: weedkilling efficacy, growth period weed treatment in the submerged state; C: oval-leafed pondweed; conditions: treatment dosage 320 g/ha
How it was run: (§3)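 Barnyard grass, bulrush and oval-leafed pondweed sown in alluvial soil under 4 cm flooding, greenhouse 25 to 30° C. At 1-2 leaf stage, water-diluted emulsion applied to the water surface at stated g/ha dosages; effects scored 3 weeks later.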

barnyard grass [4] = experiment: Test Example 1: weedkilling efficacy, preemergent weed treatment in the submerged state; A: barnyard grass; conditions: treatment dosage 320 g/ha
How it was run: as §2

barnyard grass [5] = experiment: Test Example 2: weedkilling efficacy, growth period weed treatment in the submerged state; A: barnyard grass; conditions: treatment dosage 320 g/ha
How it was run: as §3

rapeseed = experiment: Test Example 3: soil treatment, effect on crop; g: rapeseed; conditions: soil treatment, treatment dosage 320 g/ha
How it was run: as §1

catchweed = experiment: Test Example 3: weedkilling efficacy through soil treatment; O: catchweed; conditions: soil treatment, treatment dosage 320 g/ha
How it was run: as §1

oval-leafed pondweed [6] = experiment: Test Example 1: weedkilling efficacy, preemergent weed treatment in the submerged state; C: oval-leafed pondweed; conditions: treatment dosage 320 g/ha
How it was run: as §2

redroot pigweed = experiment: Test Example 3: weedkilling efficacy through soil treatment; L: redroot pigweed; conditions: soil treatment, treatment dosage 320 g/ha
How it was run: as §1

bulrush [7] = experiment: Test Example 2: weedkilling efficacy, growth period weed treatment in the submerged state; B: bulrush; conditions: treatment dosage 320 g/ha
How it was run: as §3

CC(C)(C(=O)Nc1cc(Oc2ccccc2)cc(Cl)n1)N1COCN(c2ccccc2)C1=O [A-2-36]
E: green foxtail, weedkilling efficacy grade (green foxtail): 5 (weed kill ratio 90% or more, (practically complete withering)) | M: fig-leafed goosefoot, weedkilling efficacy grade (fig-leafed goosefoot): 3 (weed kill ratio 40% or more, less than 70%) | P: birds-eye speedwell, weedkilling efficacy grade (birds-eye speedwell): 4 (weed kill ratio 70% or more, less than 90%) | f: beet, effect on crop grade (beet): 2 (weed kill ratio 20% or more, less than 40%) | I: Italian ryegrass, weedkilling efficacy grade (Italian ryegrass): 5 (weed kill ratio 90% or more, (practically complete withering)) | J: common wind-grass, weedkilling efficacy grade (common wind-grass): 5 (weed kill ratio 90% or more, (practically complete withering)) | B: bulrush, weed kill grade (bulrush [1]): 5 (weed kill ratio 90% or more, (practically complete withering)) | e: wheat, effect on crop grade (wheat): 0 (weed kill ratio 5% or less (practically no effect)) | b: directly sown rice, effect on crop grade (directly sown rice): 0 (weed kill ratio 5% or less (practically no effect)) | H: black-grass, weedkilling efficacy grade (black-grass): 5 (weed kill ratio 90% or more, (practically complete withering)) | G: wild oat, weedkilling efficacy grade (wild oat): 0 (weed kill ratio 5% or less (practically no effect)) | d: soybean, effect on crop grade (soybean): 0 (weed kill ratio 5% or less (practically no effect)) | c: corn, effect on crop grade (corn): 0 (weed kill ratio 5% or less (practically no effect)) | D: crabgrass, weedkilling efficacy grade (crabgrass): 5 (weed kill ratio 90% or more, (practically complete withering)) | a: transplanted rice, effect on crop grade (transplanted rice): 2 (weed kill ratio 20% or more, less than 40%) | F: barnyard grass, weedkilling efficacy grade (barnyard grass [2]): 4 (weed kill ratio 70% or more, less than 90%) | N: chickweed, weedkilling efficacy grade (chickweed): 3 (weed kill ratio 40% or more, less than 70%) | K: Indian mallow, weedkilling efficacy grade (Indian mallow): 0 (weed kill ratio 5% or less (practically no effect)) | C (oval-leafed pondweed) weedkilling efficacy grade (oval-leafed pondweed [3]): 5 (weed kill ratio 90% or more, (practically complete withering)) | A: barnyard grass, weed kill grade (barnyard grass [4]): 5 (weed kill ratio 90% or more, (practically complete withering)) | A (barnyard grass) weedkilling efficacy grade (barnyard grass [5]): 5 (weed kill ratio 90% or more, (practically complete withering)) | g: rapeseed, effect on crop grade (rapeseed): 1 (weed kill ratio 5% or more, less than 20%) | O: catchweed, weedkilling efficacy grade (catchweed): 0 (weed kill ratio 5% or less (practically no effect)) | C: oval-leafed pondweed, weed kill grade (oval-leafed pondweed [6]): 5 (weed kill ratio 90% or more, (practically complete withering)) | L: redroot pigweed, weedkilling efficacy grade (redroot pigweed): 3 (weed kill ratio 40% or more, less than 70%) | B (bulrush) weedkilling efficacy grade (bulrush [7]): 3 (weed kill ratio 40% or more, less than 70%)
